# Source: patent US20050208139A1 (Ascend Therapeutics, Inc., priority 2004, published 2005)
# Assay: Effects of pH on isomerization at 40° C. (Example 5)
# Type: physicochemical
# [1] = Initial E/Z 100/0, Buffer pH 2.2, Final pH 4, Day
# [2] = Initial E/Z 100/0, Buffer pH 2.2, Final pH 4, Day 8
# [3] = Initial E/Z 100/0, Buffer pH 2.2, Final pH 4, Mo. 1
# [4] = Initial E/Z 100/0, Buffer pH 2.2, Final pH 4, Mo. 2
# [5] = Initial E/Z 100/0, Buffer pH 2.2, Final pH 4, Mo. 3
# [6] = Initial E/Z 100/0, Buffer pH 4, Final pH 6, Day
# [7] = Initial E/Z 100/0, Buffer pH 4, Final pH 6, Day 8
# [8] = Initial E/Z 100/0, Buffer pH 4, Final pH 6, Mo. 1
# [9] = Initial E/Z 100/0, Buffer pH 4, Final pH 6, Mo. 2
# [10] = Initial E/Z 100/0, Buffer pH 4, Final pH 6, Mo. 3
# [11] = Initial E/Z 100/0, Buffer pH 4, Final pH 6, Time 0
# [12] = Initial E/Z 100/0, Buffer pH 6, Final pH 7, Day
# [13] = Initial E/Z 100/0, Buffer pH 6, Final pH 7, Day 8
# [14] = Initial E/Z 100/0, Buffer pH 6, Final pH 7, Mo. 1
# [15] = Initial E/Z 100/0, Buffer pH 6, Final pH 7, Mo. 2
# [16] = Initial E/Z 100/0, Buffer pH 6, Final pH 7, Mo. 3
# [17] = Initial E/Z 100/0, Buffer pH 6, Final pH 7, Time 0
# [18] = Initial E/Z 100/0, Buffer pH 8, Final pH 9, Day
# [19] = Initial E/Z 100/0, Buffer pH 8, Final pH 9, Day 8
# [20] = Initial E/Z 100/0, Buffer pH 8, Final pH 9, Mo. 1
# [21] = Initial E/Z 100/0, Buffer pH 8, Final pH 9, Mo. 2
# [22] = Initial E/Z 100/0, Buffer pH 8, Final pH 9, Mo. 3
# [23] = Initial E/Z 100/0, Buffer pH 8, Final pH 9, Time 0
# [24] = Initial E/Z 100/0, Buffer pH 10, Final pH 12, Day
# [25] = Initial E/Z 100/0, Buffer pH 10, Final pH 12, Day 8
# [26] = Initial E/Z 100/0, Buffer pH 10, Final pH 12, Mo. 1
# [27] = Initial E/Z 100/0, Buffer pH 10, Final pH 12, Mo. 2
# [28] = Initial E/Z 100/0, Buffer pH 10, Final pH 12, Mo. 3
# [29] = Initial E/Z 100/0, Buffer pH 10, Final pH 12, Time 0
compound,measurement,setting,value
"CCC(=C(c1ccc(O)cc1)c1ccc(OCCN(C)C)cc1)c1ccccc1 [4-hydroxy tamoxifen, 1-[4-(2-N-dimethylaminoethoxy)phenyl]-1-(4-hydroxyphenyl)-2-phenylbut-1-ene]",% Z,"Initial E/Z 37/63, Buffer pH 10, Final pH 12, Time 0",36.6%
same,% E,[1],45.9%
same,% Z,[1],54.1%
same,% E,[2],29.0%
same,% Z,[2],71.0%
same,% E,[3],47.4%
same,% Z,[3],52.6%
same,% E,[4],48.0%
same,% Z,[4],52.0%
same,% E,[5],47.7%
same,% Z,[5],52.3%
same,% Z,"Initial E/Z 100/0, Buffer pH 2.2, Final pH 4, Time 0",100.0%
same,% E,[6],34.3%
same,% Z,[6],65.7%
same,% E,[7],12.5%
same,% Z,[7],87.5%
same,% E,[8],43.2%
same,% Z,[8],56.8%
same,% E,[9],48.1%
same,% Z,[9],51.9%
same,% E,[10],48.5%
same,% Z,[10],51.5%
same,% E,[11],0.0%
same,% Z,[11],100.0%
same,% E,[12],9.6%
same,% Z,[12],90.4%
same,% E,[13],2.9%
same,% Z,[13],97.1%
same,% E,[14],16.6%
same,% Z,[14],83.4%
same,% E,[15],31.3%
same,% Z,[15],68.6%
same,% E,[16],40.8%
same,% Z,[16],59.2%
same,% E,[17],0.0%
same,% Z,[17],100.0%
same,% E,[18],11.6%
same,% Z,[18],88.4%
same,% E,[19],3.4%
same,% Z,[19],96.6%
same,% E,[20],20.6%
same,% Z,[20],79.4%
same,% E,[21],36.4%
same,% Z,[21],63.6%
same,% E,[22],44.1%
same,% Z,[22],55.9%
same,% E,[23],0.0%
same,% Z,[23],100.0%
same,% E,[24],48.8%
same,% Z,[24],51.2%
same,% E,[25],48.3%
same,% Z,[25],51.7%
same,% E,[26],48.8%
same,% Z,[26],51.2%
same,% E,[27],48.8%
same,% Z,[27],51.2%
same,% E,[28],48.9%
same,% Z,[28],51.1%
same,% E,[29],0.0%
same,% Z,[29],100.0%
same,% E,"Initial E/Z ratios of 37/63, Buffer pH 2.2, Final pH 4, Time 0",62.9%
same,% E,"Initial E/Z ratios of 100/0, Buffer pH 2.2, Final pH 4, Time 0",0.0%
